# Measurements taken from patent US20240228482A1, “COMPOUNDS, COMPOSITIONS AND METHODS OF TREATING CANCER” (HOTSPOT THERAPEUTICS, INC., priority 2021, published 2024).
# Molecular target: T1, CBL-B (Homo sapiens, UniProt Q13191)
# T1 construct: GST
# Assay: CBL-B TR-FRET IC50 screening (E1/E2 ubiquitination, Biotin-Ubiquitin, Anti GST-Tb donor / Streptavidin-d2 acceptor)
# Assay type: biochemical
# Settings: CBL-B 10 nM final; 11-point titration from 100 uM; binned A-F; read-out: CBL-B TR-FRET activity IC50
# T1 sequence (Q13191 whole entry): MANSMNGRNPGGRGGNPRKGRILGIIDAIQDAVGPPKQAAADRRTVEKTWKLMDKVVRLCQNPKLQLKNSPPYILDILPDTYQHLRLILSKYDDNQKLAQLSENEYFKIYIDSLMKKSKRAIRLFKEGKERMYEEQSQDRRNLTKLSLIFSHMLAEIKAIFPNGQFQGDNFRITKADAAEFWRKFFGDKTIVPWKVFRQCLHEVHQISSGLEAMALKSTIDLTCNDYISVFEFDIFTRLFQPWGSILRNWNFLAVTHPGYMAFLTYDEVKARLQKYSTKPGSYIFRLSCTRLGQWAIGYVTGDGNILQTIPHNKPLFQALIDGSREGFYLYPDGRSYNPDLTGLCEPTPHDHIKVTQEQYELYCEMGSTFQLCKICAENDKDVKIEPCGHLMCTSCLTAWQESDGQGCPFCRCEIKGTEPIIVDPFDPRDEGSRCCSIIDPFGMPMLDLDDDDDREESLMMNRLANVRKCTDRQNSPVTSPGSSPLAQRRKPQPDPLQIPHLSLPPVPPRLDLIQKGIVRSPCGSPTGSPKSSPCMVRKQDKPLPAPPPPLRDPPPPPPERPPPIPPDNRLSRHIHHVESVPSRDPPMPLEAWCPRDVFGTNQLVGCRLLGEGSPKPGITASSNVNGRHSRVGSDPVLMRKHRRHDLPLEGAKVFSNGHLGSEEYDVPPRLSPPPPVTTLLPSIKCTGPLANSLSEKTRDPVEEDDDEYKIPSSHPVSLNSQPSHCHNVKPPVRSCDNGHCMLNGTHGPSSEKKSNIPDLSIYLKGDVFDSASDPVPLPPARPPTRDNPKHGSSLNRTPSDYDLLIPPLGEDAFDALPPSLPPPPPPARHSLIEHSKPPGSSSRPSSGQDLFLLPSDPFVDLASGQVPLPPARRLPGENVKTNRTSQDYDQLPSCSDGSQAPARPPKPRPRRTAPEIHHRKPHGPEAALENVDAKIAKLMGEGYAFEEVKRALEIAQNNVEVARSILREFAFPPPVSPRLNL
row,IC50 [nM],Structure (SMILES)
1,3000 to 10000,Cn1cnnc1CC1(c2cccc(-n3cc4c(C(F)(F)F)cc(C(=O)O)cn4c3=O)c2)COC1 [Compound 20]
2,100 to 300,"C[C@H]1CCCN(Cc2cc(C(F)(F)F)c3cn(-c4cccc([C@]5(c6nncs6)C[C@H](C)C5)c4)c(=O)n3c2)C1 (single isomer, unassigned) [Compound 293]"
3,> 10000,C[C@@H]1CN(Cc2cc(C(F)(F)F)c3cn(-c4cccc([C@H](c5nncs5)C5CCC5)c4)c(=O)n3c2)CCO1 [Compound 291]
4,< 100,Cn1cnnc1CC1(c2cccc(-n3cc4c(C(F)(F)F)cc(CN5CC6CC6C5)cn4c3=O)c2)COC1 (stereo not drawn) [Compound 25]
5,> 10000,"Cc1conc1[C@@H](c1cccc(-n2cc3c(C(F)(F)F)cc(CN4CCC[C@H](C)C4)cn3c2=O)c1)C1CCC1 (single isomer, unassigned) [Compound 303]"
6,100 to 300,"C[C@H]1CCCN(Cc2cc(C(F)(F)F)c3cn(-c4cccc([C@]5(c6nncn6C)C[C@H](O)C5)c4)c(=O)n3c2)C1 (single isomer, unassigned) [Compound 301]"
7,301 to 1000,Cn1cnnc1CC1(c2cccc(-n3cc4c(C(F)(F)F)cc(C5CCN(CC(F)(F)F)CC5)cn4c3=O)c2)COC1 [Compound 178]
8,> 10000,CC(=O)N(c1cccc(-n2cc3c(C(F)(F)F)cccn3c2=O)c1)c1nncn1C [Compound 208]
9,< 100,C[C@@H](c1cc(C(F)(F)F)c2cn(-c3cccc(C4([C@@H](F)c5nncn5C)COC4)c3)c(=O)n2c1)N1CCC2(CC2)C1 [Compound 56]
10,> 10000,"C[C@H]1CCCN(Cc2cc(C(F)(F)F)c3cn(-c4cccc([C@@H](c5nccs5)C5CCC5)c4)c(=O)n3c2)C1 (single isomer, unassigned) [Compound 305]"
11,< 100,Cn1cnnc1CC1(c2cccc(-n3cc4c(C(F)(F)F)cc(CN5CC6(COC6)C5)cn4c3=O)c2)COC1 [Compound 128]
12,100 to 300,CC(=O)N1CC2CCC(C1)N2Cc1cc(C(F)(F)F)c2cn(-c3cccc([C@H](c4nncn4C)C4CCC4)c3)c(=O)n2c1 [Compound 348]
13,< 100,Cn1cnnc1[C@@H](c1cccc(-n2cc3c(C(F)(F)F)cc(CN4Cc5ncsc5C4)cn3c2=O)c1)C1CCC1 [Compound 357]
14,< 100,Cn1cnnc1[C@]1(c2cccc(-n3cc4c(C(F)(F)F)cc(CN5CC[C@H](F)C5)cn4c3=O)c2)C[C@@H](C)C1 [Compound 216]
15,< 100,"C[C@H]1CCCN(Cc2cc(C(F)(F)F)c3cn(-c4cccc([C@@H](c5nncn5C)N5CCC5)c4)c(=O)n3c2)C1 (single isomer, unassigned) [Compound 368]"
16,> 10000,O=c1n(-c2cccc(C3(Cc4nnco4)COC3)c2)cc2c(C(F)(F)F)cccn12 [Compound 147]
17,< 100,"Cn1cnnc1[C@]1(c2cccc(-n3cc4c(C(F)(F)F)cc(CN5CCC6(CC6)C5)cn4c3=O)c2)C[C@H](C)C1 (single isomer, unassigned) [Compound 222]"
18,< 100,Cn1cnnc1[C@@H](c1cccc(-n2cc3c(C(F)(F)F)cc(CN4CC(F)C4)cn3c2=O)c1)C1CCC1 [Compound 297]
19,< 100,C[C@H](c1cc(C(F)(F)F)c2cn(-c3cccc(C4([C@H](F)c5nncn5C)COC4)c3)c(=O)n2c1)N1CCC2(CC2)C1 [Compound 57]
20,> 10000,Cn1cnnc1CC(c1ccccc1)c1cccc(-n2cc3c(C(F)(F)F)cccn3c2=O)c1 (stereo not drawn) [Compound 148]
21,301 to 1000,"CC(c1cc(C(F)(F)F)c2cn(-c3cccc([C@@H](c4nncn4C)C4CCC4)c3)c(=O)n2c1)N1CCC[C@H](C)C1 (single isomer, unassigned) [Compound 191]"
22,301 to 1000,C[C@@H]1CN(Cc2cc(C(F)(F)F)c3cn(-c4cccc(C5(Cc6nncn6C)COC5)c4)c(=O)n3c2)CCC1(F)F [Compound 72]
23,100 to 300,Cn1cnnc1CC1(c2cccc(-n3cc4c(C(F)(F)F)cc(F)cn4c3=O)c2)COC1 [Compound 104]
24,< 100,CN(Cc1cc(C(F)(F)F)c2cn(-c3cccc([C@H](c4nncn4C)C4CCC4)c3)c(=O)n2c1)Cc1cncs1 [Compound 275]
25,100 to 300,"CN1CCCCC1c1cc(C(F)(F)F)c2cn(-c3cccc(C4(Cc5nncn5C)COC4)c3)c(=O)n2c1 (single isomer, unassigned) [Compound 187]"
26,301 to 1000,"C[C@H]1CCCN(Cc2cc(C(F)(F)F)c3cn(-c4cccc([C@@H](c5nncn5C)C5COC5)c4)c(=O)n3c2)C1 (single isomer, unassigned) [Compound 134]"
27,301 to 1000,"C[C@@H]1CN([C@@H](C)c2cc(C(F)(F)F)c3cn(-c4cccc([C@@H](c5nncn5C)C5CCC5)c4)c(=O)n3c2)CCO1 (single isomer, unassigned) [Compound 232]"

# Same assay, conditions: second part of Table 2 (head 'Patent Cmpd No / Updated Activity'); same CBL-B TR-FRET IC50 bins A-F; read-out: Updated Activity
row,IC50 [nM],Structure (SMILES)
1,< 100,C[C@H]1CCCN(Cc2cc(C(F)(F)F)c3cn(-c4cccc(C(=C5CCC5)c5nncn5C)c4)c(=O)n3c2)C1 [Compound 466]
2,< 100,"C[C@H]1CCCN(Cc2cc(C(F)(F)F)c3cn(-c4cc(C#N)cc([C@@H](c5nncn5C)C5COC5)c4)c(=O)n3c2)C1 (single isomer, unassigned) [Compound 556]"
3,< 100,[2H]C([2H])(c1cc(C(F)(F)F)c2cn(-c3cccc([C@H](c4nncn4C)C4CCC4)c3)c(=O)n2c1)N1CC2(CC2)C1 [Compound 504]
4,< 100,"Cn1cnnc1C1(c2cccc(-n3cc4c(C(F)(F)F)cc(CN5CCC[C@H](C(F)(F)F)C5)cn4c3=O)c2)CC2(CC2)C1 (single isomer, unassigned) [Compound 480]"
5,> 10000,"COCC(COC)[C@@H](c1cccc(-n2cc3c(C(F)(F)F)cc(CN4CCC[C@H](C)C4)cn3c2=O)c1)c1nncn1C (single isomer, unassigned) [Compound 411]"
6,< 100,CN1CCN(Cc2cc(C(F)(F)F)c3cn(-c4cccc([C@H](c5nncn5C)C5CCC5)c4)c(=O)n3c2)S1(=O)=O [Compound 608]
7,> 10000,Cn1cnnc1[C@@H](c1cccc(-n2cc3c(C(F)(F)F)cccn3c2=O)c1)C1CCC1 [Compound 401_P2]
8,< 100,Cn1cnnc1[C@@H](c1cccc(-n2cc3c(C(F)(F)F)cc(CN4CCCS4(=O)=O)cn3c2=O)c1)C1CCC1 [Compound 541]
9,< 100,"COC(=O)N1CCC[C@H](c2cc(C(F)(F)F)c3cn(-c4cccc([C@H](c5nncn5C)C5CCC5)c4)c(=O)n3c2)C1 (single isomer, unassigned) [Compound 393]"
10,> 10000,"Cn1cnnc1[C@H](c1cc(-c2ccnnc2)cc(-n2cc3c(C(F)(F)F)cccn3c2=O)c1)C1CCC1 (single isomer, unassigned) [Compound 443]"
11,< 100,"C[C@@H]1CN(Cc2cc(C(F)(F)F)c3cn(-c4cccc(C5(c6nncn6C)CC6(CC6)C5)c4)c(=O)n3c2)CCC1(F)F (single isomer, unassigned) [Compound 464]"
12,< 100,COCCn1ccnc1-c1cc(C(F)(F)F)c2cn(-c3cccc([C@H](c4nncn4C)C4CCC4)c3)c(=O)n2c1 [Compound 502]
13,< 100,"C[C@H]1CCCN(Cc2cc(C(F)(F)F)c3cn(-c4cccc([C@H](c5nncn5C)C5(O)CCC5)c4)c(=O)n3c2)C1 (single isomer, unassigned) [Compound 474]"
14,< 100,Cn1cnnc1[C@@H](c1cccc(-n2cc3c(C(F)(F)F)cc(CN4NC(=O)CC45COC5)cn3c2=O)c1)C1CCC1 [Compound 561]
15,< 100,C[C@@H](c1cc(C(F)(F)F)c2cn(-c3cccc([C@H](c4nncn4C)C4CCC4)c3)c(=O)n2c1)N(C)Cc1cncs1 [Compound 610_P2]
